According to PubChem BioAssay (NCI):
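The compound was tested at five concentrations on cells cultured in 96-well plates, with a 48-hour exposure period. GI50 = concentration required for 50% inhibition of growth. TGI: concentration producing complete growth inhibition.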 Square brackets hold non-standard residues; d marks the D form. Peptide text beside a SMILES is read from it. * marks the point of attachment. ξ: configuration not given here. Boc = CC(C)(C)OC(=O)*; ξV = CC(C)C(N)C(=O)O; OBn = c1ccc(CO*)cc1

How the values were obtained:
Assay in all cases: NCI-60 cell line screen, 48 h
[1] = system: 786-0 renal
[2] = system: A498 renal
[3] = system: A549 NSCLC
[4] = system: ACHN renal
[5] = system: BT-549 breast
[6] = system: CAKI-1 renal
[7] = system: CCRF-CEM leukemia
[8] = system: COLO 205 colon
[9] = system: DU-145 prostate
[10] = system: EKVX NSCLC
[11] = system: HCC-2998 colon
[12] = system: HCT-116 colon
[13] = system: HCT-15 colon
[14] = system: HL-60(TB) leukemia
[15] = system: HOP-62 NSCLC
[16] = system: HOP-92 NSCLC
[17] = system: HT29 colon
[18] = system: IGROV1 ovarian
[19] = system: K-562 leukemia
[20] = system: KM12 colon
[21] = system: LOX IMVI melanoma
[22] = system: M14 melanoma
[23] = system: MALME-3M melanoma
[24] = system: MCF7 breast
[25] = system: MDA-MB-231 breast
[26] = system: MDA-MB-435
[27] = system: NCI-H226 lung
[28] = system: NCI-H23 lung
[29] = system: NCI-H460 lung
[30] = system: NCI-H522 lung
[31] = system: NCI/ADR-RES ovarian
[32] = system: OVCAR-3 ovarian
[33] = system: OVCAR-4 ovarian
[34] = system: OVCAR-5 ovarian
[35] = system: OVCAR-8 ovarian
[36] = system: PC-3 prostate
[37] = system: RPMI-8226 leukemia
[38] = system: RXF 393 renal
[39] = system: SF-268 CNS
[40] = system: SF-295 CNS
[41] = system: SF-539 CNS
[42] = system: SK-MEL-2 melanoma
[43] = system: SK-MEL-28 melanoma
[44] = system: SK-MEL-5 melanoma
[45] = system: SK-OV-3 ovarian
[46] = system: SN12C renal
[47] = system: SNB-19 CNS
[48] = system: SW-620 colon
[49] = system: T-47D breast
[50] = system: TK-10 renal
[51] = system: U251 CNS
[52] = system: UACC-257 melanoma
[53] = system: UACC-62 melanoma
[54] = system: UO-31 renal

`CCCOc1cc2ccccc2cc1C(=O)Nc1nc(N)c2c(ccc3nccc32)[nH]1` gave a GI50 [1] of 50.9 nM, a TGI [1] of 1560 nM and a GI50 [2] of 31.2 nM. The TGI [2] was 622 nM, the GI50 [3] was 99.3 nM and the TGI [3] was 1860 nM. The GI50 [4] was 64.1 nM, the TGI [4] was 2560 nM and the GI50 [5] was 99.8 nM. For the same compound, the TGI [5] was 2110 nM, the GI50 [6] was 620 nM and the TGI [6] was 3310 nM. For the same compound, the GI50 [7] was 42 nM, the TGI [7] was 1490 nM and the GI50 [8] was 44.5 nM. It also gave a TGI [8] of 481 nM, a GI50 [9] of 48.7 nM and a TGI [9] of 1450 nM. It also gave a GI50 [10] of 398 nM, a TGI [10] of 2250 nM and a GI50 [11] of 220 nM. It also gave a TGI [11] of 1860 nM, a GI50 [12] of 46.1 nM and a TGI [12] of 1220 nM. The GI50 [13] was 44.4 nM, the TGI [13] was 1310 nM and the GI50 [14] was 30.7 nM. It also gave a TGI [14] of 229 nM, a GI50 [15] of 79.8 nM and a TGI [15] of 2690 nM. The GI50 [16] was 27.9 nM, the TGI [16] was 1980 nM and the GI50 [17] was 34.1 nM. It also gave a TGI [17] of 129 nM, a GI50 [18] of 519 nM and a TGI [18] of 2890 nM. The GI50 [19] was 33.9 nM, the TGI [19] was 1260 nM and the GI50 [20] was 44.8 nM. The TGI [20] was 1530 nM, the GI50 [21] was 51.1 nM and the TGI [21] was 2020 nM. It also gave a GI50 [22] of 40.5 nM, a TGI [22] of 1080 nM and a GI50 [23] of 1130 nM. For the same compound, the TGI [23] was 2620 nM, the GI50 [24] was 45.9 nM and the TGI [24] was 1500 nM. It also gave a GI50 [25] of 1060 nM, a TGI [25] of 2850 nM and a GI50 [26] of 13.3 nM. The TGI [26] was 43.2 nM, the GI50 [27] was 1310 nM and the TGI [27] was 3320 nM. It also gave a GI50 [28] of 209 nM, a TGI [28] of 2040 nM and a GI50 [29] of 41.7 nM. The TGI [29] was 1310 nM, the GI50 [30] was 18 nM and the TGI [30] was 42.6 nM. For the same compound, the GI50 [31] was 96.2 nM, the TGI [31] was 2240 nM and the GI50 [32] was 25.4 nM. For the same compound, the TGI [32] was 81.9 nM, the GI50 [33] was 1550 nM and the TGI [33] was 4370 nM. For the same compound, the GI50 [34] was 911 nM, the TGI [34] was 2980 nM and the GI50 [35] was 203 nM. It also gave a TGI [35] of 1690 nM, a GI50 [36] of 49.2 nM and a TGI [36] of 2220 nM. For the same compound, the GI50 [37] was 113 nM, the TGI [37] was 2150 nM and the GI50 [38] was 42.6 nM. It also gave a TGI [38] of 1160 nM, a GI50 [39] of 65.8 nM and a TGI [39] of 2860 nM. The GI50 [40] was 30.7 nM, the TGI [40] was 1260 nM and the GI50 [41] was 53.8 nM. The TGI [41] was 1040 nM, the GI50 [42] was 36.8 nM and the TGI [42] was 1320 nM. The GI50 [43] was 1010 nM, the TGI [43] was 2360 nM and the GI50 [44] was 41.3 nM. For the same compound, the TGI [44] was 1040 nM, the GI50 [45] was 59.1 nM and the TGI [45] was 2360 nM. For the same compound, the GI50 [46] was 1420 nM, the TGI [46] was 3220 nM and the GI50 [47] was 65.5 nM. For the same compound, the TGI [47] was 2080 nM, the GI50 [48] was 37.7 nM and the TGI [48] was 1800 nM. It also gave a GI50 [49] of 499 nM, a TGI [49] of 3170 nM and a GI50 [50] of 458 nM. The TGI [50] was 2060 nM, the GI50 [51] was 52.7 nM and the TGI [51] was 1400 nM. The GI50 [52] was 1210 nM, the TGI [52] was 2620 nM and the GI50 [53] was 40.3 nM. It also gave a TGI [53] of 1960 nM, a GI50 [54] of 703 nM and a TGI [54] of 2400 nM.
With `CC(C)C(NC(=O)CNC(=O)OC(C)(C)C)C(=O)OCc1ccccc1` (stereo not drawn) (Boc-Gly-[ξV]-OBn) the GI50 [14] was 86.5 µg/mL and the GI50 [19] was 30.4 µg/mL.
